Source: EP3381898A1, “SYMMETRICAL TRIS-ARYL-AMIDE DERIVATIVES AND THEIR USE AS ANTI-HEPARANASE” (priority 2017, dated 2018)

How the values were obtained:
[1] = system: HT1080 (human fibrosarcoma); assay: Matrigel cell invasion assay; format: cell-based; conditions: HT-1080, read-out: Invasion Assay Inhibition HT1080
Experimental: (§1) Heparanase inhibitors were then evaluated for their activity on the invasive potential of HT1080 (human fibrosarcoma), U87MG (human glioblastoma astrocytoma) and U2OS (human osteosarcoma) human cell lines, using the Matrigel cell invasion assay which allows to assess the cell invasion ability of malignant and normal cells.
(§2) Invasion assay was performed using BioCoat cell culture inserts (BioCoat 8.0µm PET Membrane 24 Well Permeable Supports, Corning). Filters were coated with 100 µl of 300 µg/ml Matrigel dissolved in coating buffer (0.01 M Tris pH 8.0, 0.7% NaCl) (Becton-Dickinson Sciences). DMEM (Dulbecco's Modified Eagle's Medium) containing 5% FBS was added to the lower chambers. Cells were pre-treated with heparanase inhibitors for 24 h, detached and added to the upper chambers in media containing the inhibitors. Cells were allowed to invade for 24 h at 37°C in a CO2 incubator and then unmigrated cells were removed from the upper chamber with a cotton swab. The invading cells were fixed, stained with 0.1% crystal violet for 10 min at room temperature, photographed and counted under inverted microscope.
(§3) Test compounds were analyzed at fixed concentration (2.5 µM) for several fields, in duplicates. Activity of test compounds was compared to the reference compound. Activity of most interesting compound was confirmed in a second cell invasion assay. Data were expressed as the percent invasion with respect to cell migration through uncoated insert membrane.
(§4) Table 3. […] In Invasion assay, data were expressed as the percent invasion (range) with respect to cell migration through uncoated insert membrane. In Adhesion assay, data were expressed as the percent of adhesion with respect to the control (100%).

[2] = system: U2OS (human osteosarcoma); assay: Matrigel cell invasion assay; format: cell-based; conditions: Homo sapiens, read-out: Invasion Assay Inhibition U2OS
Experimental: as §1, §2, §3, §4

[3] = system: U87MG (human glioblastoma astrocytoma); assay: Matrigel cell invasion assay; format: cell-based; conditions: Homo sapiens, U-87 MG, read-out: Invasion Assay Inhibition U87MG
Experimental: as §1, §2, §3, §4

[4] = system: HT1080 (human fibrosarcoma); assay: Cell adhesion assay on matrigel coated wells; format: cell-based; conditions: 2.5 µM, percent of adhesion with respect to the control (100%)
Experimental: (§5) Cell surface, non-integrin molecules such as heparan sulfate proteoglycans (HSPGs) may be involved in the regulation of early adhesive stages of cell-ECM interactions. A cell adhesion assay has been employed to determine if the newly designed heparanase inhibitors were able to interfere with adhesion properties of cancer cells.
(§6) HT1080 (human fibrosarcoma) and U87MG (human glioblastoma astrocytoma) cells were treated for 18-20 h with test compounds in complete medium supplemented with 10% FCS. Then cells were collected, washed in complete medium, and added to matrigel coated wells in triplicate, at previously identified optimal seeding density, and incubated at 37 °C in complete medium for times ranging from 15 minutes to 4h, according to the cell line. After incubation, the wells were washed three times with serum-free medium and the remaining firmly attached cells were stained with crystal-violet 0.1%. Optical density was measured at 560 nm by Victor 3 (Perkin-Elmer) plate analyzer. Each experiment was repeated three times.
as §4

[5] = system: U87MG (human glioblastoma astrocytoma); assay: Cell adhesion assay on matrigel coated wells; format: cell-based; conditions: 2.5 µM, percent of adhesion with respect to the control (100%)
Experimental: as §5, §6, §4

[6] = system: genes encoding for proangiogenic factors; assay: Real-Time Quantitative PCR in HT1080 cells, summary statement for all factors; format: cell-based, human; conditions: 2.5 µM, result in words
Experimental: To evaluate the effect of heparanase inhibitors on the tumor transcription of genes encoding for proangiogenic factors, such as FGF1/2, VEGF, MMP-9, HSPE-1, the relative mRNA levels were analyzed by quantitative Real-Time Quantitative PCR.
To perform the assay, HT1080 (human fibrosarcoma) cells were cultured in complete medium containing 10%FCS (fetal calf serum). Cells were plated in 24-well plates and treated at fixed concentration (i.e., highest non-toxic concentration) of test compounds. After 24 h, cells were detached, collected and total RNA extracted by RNeasy Mini Kit (QIAGEN). Following reverse transcription step, FGF1/2, VEGF, MMP-9, HSPE-1 mRNA levels, were quantified by qPCR using the advanced Universal SYBR Green Supermix (Bio Rad) and ABI PRISM 7900HT Thermal Cycler System (Perkin Elmer), according to the manufacturer's instructions. Appropriate no-RT and non-template controls were included in each 96-well PCR reaction, and dissociation analysis was performed at the end of each run to confirm the specificity of the reaction. Relative levels of RNA were calculated using the ddCt method. Standard curve and sample data were run in duplicate. In Table 4 a mean value is reported. […]

## Cn1cc(NC(=O)c2ccc(Oc3ccc(C(=O)Nc4cc(C(=O)Nc5cccc(CC(=O)N[C@@H](Cc6ccccc6)C(=O)O)c5)n(C)c4)cc3)cc2)cc1C(=O)Nc1cccc(CC(=O)N[C@@H](Cc2ccccc2)C(=O)O)c1 [Compound 36e, (2S,2'S)-2,2'-((2,2'-(((4,4'-((4,4'-Oxybis(benzoyl))bis(azanediyl))bis(1-methyl-1H-pyrrole-2,2'-carbonyl))bis(azanediyl))bis(3,1-phenylene))bis(acetyl))bis(azanediyl))bis(3-phenylpropanoic acid)]
[1]
  inhibition at 2.5 µM: 50 to 90%
[2]
  inhibition at 2.5 µM: < 50%
[3]
  inhibition at 2.5 µM: 50 to 90%
[4]
  Adhesion Assay (%) HT1080: 91.2%
[5]
  Adhesion Assay (%) U87MG: 73.0%
[6]
  inhibition of genes expression encoding for proangiogenic factors: significant inhibition
